Source: patent publication US7566453B2, “Methods for treating melanomas” (Chugai Seiyaku Kabushiki Kaisha, priority 1998, dated 2009)

Columns and labels:
KPMM2 cells = experiment: Human myeloma cell-implanted SCID mouse system, dose dependency of antibody (Example 3): survival, serum M protein; format: in vivo; details: for Life-elongation ratio (%): vs drug non-administration group; for Survival period: mean±standard error
Protocol: (§1) For evaluation of antitumor effects, a xenograft model animal that was produced by implanting KPMM2 cells via the tail vein was used as in Working example 2. Thus, single-cell suspensions which were prepared by passing through a mesh KPMM2 cells that were minced after having been maintained in vivo were implanted at 0.2 ml per mouse via the tail vein (6×10^6 cells per mouse). The day when the cells were implanted was set at day 0.
They were given to mice at 0.1 ml per 10 g body weight of mouse via the tail vein on day 14 to create the 50, 10, 2, and 0.4 mg/kg administration groups.
Melphalan (L-PAM, manufactured by Sigma Chemical Co.) was used as a suspension of 0.1 mg/ml in 0.2% CMC solution in water. This was given orally at 0.1 ml per 10 g body weight of mouse (1 mg/kg weight) for 5 consecutive days starting on day 7.
The experiment was carried out on the following 10 groups: (A) the melphalan and the antibody non-administration group; (B) the melphalan single-drug administration group; (C) the each dose of antibody single-drug administration group , 4 groups (50, 10, 2, 0.4 mg/kg weight); and, (D) the melphalan and the each dose of antibody combined administration group, 4 groups (50, 10, 2, 0.4 mg/kg weight). The non-administration group included 12 mice per group, the melphalan administration group 6 mice per group, whereas each of the other groups included 7 mice. Furthermore, mice of the same lineage and purchased on the same day were raised without implanting a tumor, and the animals were used as negative control for M protein detection. The amount of M protein was calculated as described in Example 2.
Indices of the drug efficacy included the survival period, and the amount of M proteins on day 30, day 35, and day 42. For analysis of the survival period, a generalized Wilcoxon's test (SPSS for Windows ver. 6, SPSS inc.) was used. A significance level of 5% or lower was considered to be significant. For analysis of the amount of M protein in the serum, the ANOVA (Analysis of variance, SPSS for windows ver. 6, SPSS inc.) was first conducted. After confirming significance, Bonferroni method (SPSS for windows ver. 6, SPSS inc.) was used, and a significance level of 5% or lower was considered to be significant.

human IL-6 receptor [1] = molecular target: T1, human IL-6 receptor (Homo sapiens, UniProt P08887); experiment: ELISA of binding to human IL-6 receptor
T1 sequence (P08887 20-468): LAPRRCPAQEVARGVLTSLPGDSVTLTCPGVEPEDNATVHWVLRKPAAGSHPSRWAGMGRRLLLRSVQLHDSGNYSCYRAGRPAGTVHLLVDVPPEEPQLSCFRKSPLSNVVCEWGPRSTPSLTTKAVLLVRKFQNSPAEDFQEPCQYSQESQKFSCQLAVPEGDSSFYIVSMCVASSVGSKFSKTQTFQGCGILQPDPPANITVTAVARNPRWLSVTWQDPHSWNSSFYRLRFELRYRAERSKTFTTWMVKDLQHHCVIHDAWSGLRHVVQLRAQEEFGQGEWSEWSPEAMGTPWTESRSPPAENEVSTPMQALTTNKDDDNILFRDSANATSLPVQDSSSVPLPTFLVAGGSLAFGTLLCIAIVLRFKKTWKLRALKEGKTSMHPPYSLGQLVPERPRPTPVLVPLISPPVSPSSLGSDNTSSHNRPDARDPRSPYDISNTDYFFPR
Description: (§2) In order to express genes of L chain and H chain of the reshaped human PM-1 antibody thus constructed, DNA encoding the L chain or the H chain was separately inserted into a vector containing the human elongation factor 1α (HEF-1α) promoter, and a vector expressing the L chain or the H chain of the reshaped human PM-1 (hPM-1) antibody was constructed. By simultaneously inserting these two expression vectors into CHO cells, a cell line that produces reshaped human PM-1 antibody (hPM-1) was established.

human IL-6 receptor [2] = molecular target: T1, human IL-6 receptor; experiment: Inhibition of binding of human IL-6 to human IL-6 receptor; details: compared with mouse antibody and chimeric antibody
Description: as §2

[3] = Body weight change (toxicity) of myeloma-implanted mice, Example 3; format: in vivo, SCID mouse; details: melphalan administration (FIG. 16)
Protocol: as §1
With regard to anti-human IL-6 receptor antibody hPM-1, a stock solution that had been preserved at 6.57 mg/ml was diluted in sodium phosphate buffer to make each solution of 5, 1, 0.2, and 0.04 mg/ml. They were given to mice at 0.1 ml per 10 g body weight of mouse via the tail vein on day 14 to create the 50, 10, 2, and 0.4 mg/kg administration groups. The control group received the same buffer without antibody in a similar manner. […]
The experiment was carried out on the following 10 groups: (A) the melphalan and the antibody non-administration group; (B) the melphalan single-drug administration group; (C) the each dose of antibody single-drug administration group , 4 groups (50, 10, 2, 0.4 mg/kg weight); and, (D) the melphalan and the each dose of antibody combined administration group, 4 groups (50, 10, 2, 0.4 mg/kg weight). […] The amount of M protein was calculated as described in Example 2.

[4] = Body weight change (toxicity) of myeloma-implanted mice, Example 2; format: in vivo, SCID mouse; details: melphalan administration (FIG. 10)
Description: For evaluation of antitumor activity, a xenograft model was used. Thus, KPMM2, a human myeloma cell line derived from ascites of a patient with multiple myeloma was implanted to a male SCID mouse (FOX CHASE C. B17/Icr-Scid Jcl, purchased from Nippon Klea) via the tail vein. At this time, the tumor cells grow in the bone marrow and come to produce myeloma protein (M protein) in the peripheral blood. Furthermore, this model system is very close to an actual clinical condition in that it develops major symptoms of multiple myeloma in humans such as bone disorders, elevated blood calcium, and the like.
With regard to anti-human IL-6 receptor antibody, a stock solution that had been preserved at 12.1 mg/ml was diluted in sterile phosphate buffer to make 5 mg/ml. This was given to mice at 0.2 ml per animal via the tail vein on day 8 (1 mg per mouse). The control group received sterile phosphate buffer containing no antibody in a similar manner.
Melphalan (L-PAM, manufactured by Sigma Chemical Co.) that was suspended at 0.3 or 0.1 mg/ml in 0.2% CMC (carboxymethylcellulose) solution in water was used. This was given orally at 0.1 ml per 10 g body weight of mouse (3 or 1 mg/kg weight) for 5 consecutive days starting on day 1. The control group received 0.2% CMC solution in water containing no melphalan in a similar manner. […]

| Molecule | life elongation effect (survival period) (KPMM2 cells; antibody single-drug administration, 50, 10, 2, 0.4 mg/kg) | amount of M protein in the serum on day 30 (KPMM2 cells; antibody single-drug administration, 50, 10, 2, 0.4 mg/kg on day 14 (FIG. 11)) | Life-elongation ratio (%) (KPMM2 cells; hPM-1 0.4 mg/kg on day 14, CMC control) | Survival period (KPMM2 cells; hPM-1 0.4 mg/kg via the tail vein on day 14, CMC control) | Life-elongation ratio (%) (KPMM2 cells; hPM-1 2 mg/kg on day 14, CMC control) | Survival period (KPMM2 cells; hPM-1 2 mg/kg via the tail vein on day 14, CMC control) | Life-elongation ratio (%) (KPMM2 cells; hPM-1 10 mg/kg on day 14, CMC control) | Survival period (KPMM2 cells; hPM-1 10 mg/kg via the tail vein on day 14, CMC control) | Life-elongation ratio (%) (KPMM2 cells; hPM-1 50 mg/kg on day 14, CMC control) | Survival period (KPMM2 cells; hPM-1 50 mg/kg via the tail vein on day 14, CMC control) | ability to bind to human IL-6 receptor (human IL-6 receptor [1]) | inhibition of the binding of human IL-6 to human IL-6 receptor (human IL-6 receptor [2]) | Life-elongation ratio (%) (KPMM2 cells; melphalan 1 mg/kg orally 5 days from day 7, no antibody) | Survival period (KPMM2 cells; melphalan 1 mg/kg orally, 5 consecutive days from day 7, no antibody) | Life-elongation ratio (%), value in parentheses (KPMM2 cells; melphalan 1 mg/kg, no antibody, melphalan single-drug administration group as control) [%] | life elongation effect (survival period) (KPMM2 cells; melphalan alone, 1 mg/kg) | amount of M protein in the serum on day 30 (KPMM2 cells; melphalan single-drug administration, 1 mg/kg (FIG. 11)) | toxicity (inhibition of body weight gain) [3] | toxicity (inhibition of body weight gain) [4] |
| --- | --- | --- | --- | --- | --- | --- | --- | --- | --- | --- | --- | --- | --- | --- | --- | --- | --- | --- | --- |
| hPM-1: reshaped human PM-1 antibody: CDRs of mouse anti-IL-6 receptor antibody PM-1 grafted to human antibody, produced in CHO cells | none of the doses in the antibody single-drug administration group gave a significant life elongation effect | none of the doses significantly inhibited the amount of M protein | 98 | 40.3 ± 1.2 | 101 | 41.4 ± 1.3 | 99 | 40.4 ± 1.7 | 101 | 41.6 ± 1.0 | confirmed by ELISA | inhibited the binding of human IL-6 to human IL-6 receptor in a similar manner to that of mouse antibody and chimeric antibody | – | – | – | – | – | – | – |
| NC(Cc1ccc(N(CCCl)CCCl)cc1)C(=O)O (stereo not shown) [melphalan] | – | – | – | – | – | – | – | – | – | – | – | – | 142 | 58.2 ± 1.8 | 100 | significant life elongation effect | significantly inhibited | caused toxicity to mice and inhibited body weight gain | caused toxicity in mice and inhibited body weight gain |
